In patent US10023591B2, “Heterocyclic derivatives and use thereof” (C&C RESEARCH LABORATORIES, priority 2014, dated 2018):

Legend:
[1] = tested on: STAT3; experiment: STAT3 reporter gene assay (luciferase), LNCaP stable cell line pSTAT3-TA-luc, IL-6 stimulation; assay type: cell-based, human; settings: Homo sapiens
Protocol: 1-1) Experiment on the Inhibition of STAT3 Activity
A human prostate cancer cell line (LNCaP stable cell line; plasmid pSTAT3-TA-luc), which contains a stably operating STAT3 promoter, was cultured in RPMI1640 medium (Cat No. 11875, Life Technologies) containing 10% fetal bovine serum (FBS) (Cat No. SH30396, Thermo Scientific) and 150 μg/mL G-418 solution (Cat No. 04 727 894 001, Roche). The reporter gene assay using LNCaP stable cell line was performed in RPMI1640 medium containing 3% DCC-FBS without G-418 solution. LNCaP stable cells were plated in two (2) white 96-well plates with 30,000 cells/50 μL in each well. The cells were cultured at 37° C., under 5% CO2 for 24 hours, and then treated with the compounds listed in Examples which were diluted in various concentrations. Subsequently, IL-6 was added to each well with a final concentration of 10 ng/mL. Upon completion of the treatment with the compounds and IL-6, the cells were cultured at 37° C., under 5% CO2 for 24 hours. The plates were observed under microscope and drug precipitation and particular findings were investigated and recorded.
(§1) The luciferase assay and the cell viability assay were performed respectively with one of the two plates. For the luciferase assay, the liquid media in the 96-well plate was removed, and then, 20 μL, of passive cell lysis buffer was added to each well. After shaking the plate for 30 minutes, luciferase activities of each well were measured in a PHERAstar™ microplate reader (BMG LABTECH) using a luciferase assay system (Cat No. E1501, Promega). For the cell viability assay, the 96-well plate was placed at room temperature for 30 minutes, added with 20 μL/well of CellTiter-Glo solution (Cat No. G7573, Promega), and shaken for 10 minutes in order to measure cytotoxicity caused by the compounds listed in Examples with a PHERAstar™ microplate reader (BMG LABTECH). Wells without 0.1% DMSO and stimulation were used as a negative control and wells with 0.1% DMSO and stimulation were used as a positive control.
(§2) The results of evaluation on the inhibitory effect of the compounds listed in the Examples on the dimerization of STAT3 and STAT1 obtained via the STAT3 and STAT1 reporter gene assays are shown in Table 9 below.

[2] = tested on: STAT1; experiment: STAT1 reporter gene assay (luciferase), U2OS stable cell line pGL4-STAT1-TA-luc, IFN-γ stimulation; assay type: cell-based, human; settings: Homo sapiens, IFN-γ 50 ng/mL, 8 hours, read-out: IC50 (μM) pSTAT1
Protocol: 1-2) Experiment on the Inhibition of STAT1 Activity
A human osteosarcoma cell line (U2OS stable cell line; pGL4-STAT1-TA-luc), which contains a stably operating STAT1 promoter, was cultured in McCoy 5′A medium (Cat No. 16600, Life Technologies) containing 10% FBS (Cat No. SH30396, Thermo Scientific) and 1000 μg/mL G418 solution (Cat No. 04 727 894 001, Roche). The reporter gene assay using U2OS stable cell line was performed in McCoy 5′A medium containing 10% FBS without G-418 solution. U2OS stable cells were plated in two (2) white 96-well plates with 25,000 cells/50 pt in each well. The cells were cultured at 37° C., under 5% CO2 for 24 hours, and then treated with the compounds listed in Examples which were diluted in various concentrations. Subsequently, IFN-γ was added to each well with a final concentration of 50 ng/mL. Upon completion of the treatment with the compounds and IFN-γ, the cells were cultured at 37° C., under 5% CO2 for 8 hours. The plates were observed under microscope and drug precipitation and particular findings were investigated and recorded.
as §1, with “of” for “of the”, “μL” for “μL,”
as §2

SMILES	IC50 [1] [µM]	IC50 [2] [µM]
CCOc1cc(OC(F)(F)F)cc(C(C)(C)c2cc(Cl)cc(NC(=O)c3cc4cc(C(C)(C)S(C)(=O)=O)ccc4s3)c2)c1 [Example 1, N-(3-chloro-5-(2-(3-ethoxy-5-(trifluoromethoxy)phenyl)propan-2-yl)phenyl)-5-(2-(methylsulfonyl)propan-2-yl)benzo[b]thiophene-2-carboxamide]	0.0076	> 50
CCCOc1cc(OC(F)(F)F)cc(C(C)(C)c2cc(Cl)cc(NC(=O)c3cc4cc(C(C)(C)S(C)(=O)=O)ccc4s3)c2)c1 [Example 2, N-(3-chloro-5-(2-(3-propoxy-5-(trifluoromethoxy)phenyl)propan-2-yl)phenyl)-5-(2-(methylsulfonyl)propan-2-yl)benzo[b]thiophene-2-carboxamide]	0.008	> 50
COc1cc(OC(F)(F)F)cc(C(C)(C)c2cccc(NC(=O)c3cc4cc(C(C)(C)S(C)(=O)=O)ccc4s3)c2)c1 [Example 3, N-(3-(2-(3-methoxy-5-(trifluoromethoxy)phenyl)propan-2-yl)phenyl)-5-(2-(methylsulfonyl)propan-2-yl)benzo[b]thiophene-2-carboxamide]	0.0098	> 50
CC(C)(c1cc(Br)cc(NC(=O)c2cc3cc(C(C)(C)S(C)(=O)=O)ccc3s2)c1)c1cc(OC(F)(F)F)cc(OC(F)(F)C(F)F)c1 [Example 4, N-(3-bromo-5-(2-(3-(1,1,2,2-tetrafluoroethoxy)-5-(trifluoromethoxy)phenyl)propan-2-yl)phenyl)-5-(2-(methylsulfonyl)propan-2-yl)benzo[b]thiophene-2-carboxamide]	0.0091	> 50
CC(C)(c1cc(Cl)cc(NC(=O)c2cc3cc(C(C)(C)S(C)(=O)=O)ccc3s2)c1)c1cc(OC(F)(F)F)cc(OC(F)(F)C(F)F)c1 [Example 5, N-(3-chloro-5-(2-(3-(1,1,2,2-tetrafluoroethoxy)-5-(trifluoromethoxy)phenyl)propan-2-yl)phenyl)-5-(2-(methylsulfonyl)propan-2-yl)benzo[b]thiophene-2-carboxamide]	0.028	> 50
COc1cc(NC(=O)c2cc3cc(C(C)(C)S(C)(=O)=O)ccc3s2)cc(C(C)(C)c2cc(OC)cc(OC(F)(F)F)c2)c1 [Example 6, N-(3-methoxy-5-(2-(3-methoxy-5-(trifluoromethoxy)phenyl)propan-2-yl)phenyl)-5-(2-(methylsulfonyl)propan-2-yl)benzo[b]thiophene-2-carboxamide]	0.019	> 50
COc1cc(OC(F)(F)F)cc(C(C)(C)c2cc(Cl)cc(NC(=O)c3cc4cc(C(C)(C)S(C)(=O)=O)ccc4s3)c2)c1 [Example 7, N-(3-chloro-5-(2-(3-methoxy-5-(trifluoromethoxy)phenyl)propan-2-yl)phenyl)-5-(2-(methylsulfonyl)propan-2-yl)benzo[b]thiophene-2-carboxamide]	0.0088	> 50
CC(C)(c1cc(Cl)cc(NC(=O)c2cc3cc(C(C)(C)S(C)(=O)=O)ccc3s2)c1)c1cc(OCCN2CCOCC2)cc(OC(F)(F)F)c1 [Example 8, N-(3-chloro-5-(2-(3-(2-morpholinoethoxy)-5-(trifluoromethoxy)phenyl)propan-2-yl)phenyl)-5-(2-(methylsulfonyl)propan-2-yl)benzo[b]thiophene-2-carboxamide]	0.061	> 50
CC(C)(c1ccc(F)cc1)c1cc(Br)cc(NC(=O)c2cc3cc(C(C)(C)S(C)(=O)=O)ccc3s2)c1 [Example 20, N-(3-bromo-5-(2-(4-fluorophenyl)propan-2-yl)phenyl)-5-(2-(methylsulfonyl)propan-2-yl)benzo[b]thiophene-2-carboxamide]	0.067	> 50
CC(C)c1ccc(C(C)(C)c2cc(Cl)cc(NC(=O)c3cc4cc(C(C)(C)S(C)(=O)=O)ccc4s3)c2)s1 [Example 28, N-(3-chloro-5-(2-(5-isopropylthiophen-2-yl)propan-2-yl)phenyl)-5-(2-(methylsulfonyl)propan-2-yl)benzo[b]thiophene-2-carboxamide]	0.0085	> 50
COc1sccc1C(C)(C)c1cc(Cl)cc(NC(=O)c2cc3cc(C(C)(C)S(C)(=O)=O)ccc3s2)c1 [Example 30, N-(3-chloro-5-(2-(2-methoxythiophen-3-yl)propan-2-yl)phenyl)-5-(2-(methylsulfonyl)propan-2-yl)benzo[b]thiophene-2-carboxamide]	0.0013	> 50
CC(C)(c1ccc(Cl)cc1)c1cc(Cl)cc(NC(=O)c2cc3ccc(C(C)(C)S(C)(=O)=O)cc3[nH]2)c1 [Example 35, N-(3-chloro-5-(2-(4-chlorophenyl)propan-2-yl)phenyl)-6-(2-(methylsulfonyl)propan-2-yl)-1H-indole-2-carboxamide]	0.1	> 50
CC(C)(c1ccc2cc(C(=O)Nc3cc(Cl)cc(Oc4ccc(Cl)cc4)c3)[nH]c2c1)S(C)(=O)=O [Example 40, N-(3-chloro-5-(4-chlorophenoxy)phenyl)-6-(2-(methylsulfonyl)propan-2-yl)-1H-indole-2-carboxamide]	0.21	> 50

Continued, values first:

IC50 [1] [µM]	IC50 [2] [µM]	SMILES
0.065	> 50	CC(C)(c1ccc(Cl)cc1)c1cc(Cl)cc(NC(=O)c2cc3cc(C(C)(C)S(C)(=O)=O)ncc3s2)c1 [Example 26, N-(3-chloro-5-(2-(4-chlorophenyl)propan-2-yl)phenyl)-5-(2-(methylsulfonyl)propan-2-yl)thieno[2,3-c]pyridine-2-carboxamide]
0.0041	> 50	COc1ccc(C(C)(C)c2cc(Cl)cc(NC(=O)c3cc4cc(C(C)(C)S(C)(=O)=O)ccc4s3)c2)s1 [Example 29, N-(3-chloro-5-(2-(5-methoxythiophen-2-yl)propan-2-yl)phenyl)-5-(2-(methylsulfonyl)propan-2-yl)benzo[b]thiophene-2-carboxamide]
0.078	> 50	CC(C)(c1cc2cc(C(=O)Nc3cc(Cl)cc(Oc4ccc(Cl)cc4)c3)sc2cn1)S(C)(=O)=O [Example 50, N-(3-chloro-5-(4-chlorophenoxy)phenyl)-5-(2-(methylsulfonyl)propan-2-yl)thieno[2,3-c]pyridine-2-carboxamide]
0.31	> 50	CC(C)(c1ccc2sc(C(=O)Nc3cc(Oc4ccc(Cl)cc4)cc(N4CCC4)c3)cc2c1)S(C)(=O)=O [Example 59, N-(3-(azetidin-1-yl)-5-(4-chlorophenoxy)phenyl)-5-(2-(methylsulfonyl)propan-2-yl)benzo[b]thiophene-2-carboxamide]
0.12	> 50	CC(C)(c1ccc2sc(C(=O)Nc3cc(Cl)cc(Oc4ccc(Cl)nc4)c3)cc2c1)S(C)(=O)=O [Example 60, N-(3-chloro-5-((6-chloropyridin-3-yl)oxy)phenyl)-5-(2-(methylsulfonyl)propan-2-yl)benzo[b]thiophene-2-carboxamide]
0.08	> 50	CC(C)(c1ccc2sc(C(=O)Nc3cc(Cl)cc(Oc4ccc(Cl)cn4)c3)cc2c1)S(C)(=O)=O [Example 61, N-(3-chloro-5-((5-chloropyridin-2-yl)oxy)phenyl)-5-(2-(methylsulfonyl)propan-2-yl)benzo[b]thiophene-2-carboxamide]
